Results on five compounds are retold here after patent publication US20250101058A1, “CRYSTAL FORM OF HIGH-STABILITY NOR-URSODEOXYCHOLIC BERBERINE SALT, AND PREPARATION METHOD THEREFOR” (CHENGDU BIOBEL BIOTECHNOLOGY CO., LTD, priority 2022, published 2025).

Data set [1] is described as follows: Competition experiment for crystalline forms A, C, and D in suspension. The data set is classed as physicochemical. Particulars: aw 0.2-1; stirring at room temperature, 8 days; XRPD. The procedure:
The starting material obtained in step 1 of Example 1 was added to the corresponding volume of solvent, and then allowed to suspend under stirring at room temperature for 2 h. The suspension was filtered with a 0.4 μm PTFE filter membrane to obtain a saturated solution. About 3 mg samples of crystalline forms A, C, and D were separately weighed and transferred to HPLC vials, to which was added 1 mL of saturated solution, and then the mixture was allowed to suspend under stirring at room temperature. After 8 days, the suspension was filtered to obtain the solid, and the change in crystalline form was identified by XRPD analysis.

Data set [2] is classed as physicochemical. As to conditions: for Purity (area): HPLC. The procedure:
The samples of crystalline forms A and D were stored in an opened bottle for one week under 25° C./60% RH and 40° C./75% RH conditions, respectively. The physical and chemical stability of the samples was detected by XRPD and HPLC.

A short description of data set [3]: Grinding stability testing (XRPD). The data set is classed as physicochemical. As to conditions: 50 mg manually ground. The procedure: 50 mg samples of crystalline form A and crystalline form D were manually ground, and then detected by XRPD.
A short description of data set [4]: Pressure stability testing (tableting at 10 kN). It is filed as physicochemical. As to conditions: 10 kN pressure; for Adhesion percentage: (ML-MT)/ML×100%; for Tensile strength T: T=2H/πDt; for Crystalline form after pressing: XRPD of crushed sample; for Tablet diameter D / Tablet thickness t: after 24 h elastic recovery; for Adhesion amount: powder adhesive to the punch; for Hardness H: radial crushing strength. The procedure: 100 mg samples of crystalline forms A and D were respectively added to […] of round flat punch, and then pressed into circular tablets using 10 kN pressure. The loading mass (ML) and tablet mass (MT) were recorded, and then the formula ma=(ML-MT)/ML×100% was used to calculate the mass percentage (ma) of the powder adhesive to the punch; the pressed tablets were kept in a dryer for 24 h for elastic recovery. After elastic recovery, the diameter (D) and thickness (t) of the tablet were measured using a vernier caliper. The radial crushing strength (hardness, H) was measured using a tablet hardness tester, and the XRPD pattern of the crushed sample was also tested.

A short description of data set [5]: Stability of crystalline form G on heating and on exposure after opening the cover. The data set is classed as physicochemical. As to conditions: cover opened and kept for 1 h.
The conditions of data set [6]: previous studies, CN2021110940333; cited from earlier work.
Data set [7] can be described thus: Hygroscopicity test (dynamic vapor sorption, DVS). The data set is classed as physicochemical. The procedure:
The mass change percentage of crystalline form A was tested using dynamic vapor sorption (DVS) under constant temperature conditions of 25° C. and various humidity conditions, with a humidity change of 30% RH to 95% RH to 0% RH to 95% RH.
Crystalline form A had good physical stability.

The mark [8] stands for this setting: One week, 25° C./60% RH and 40° C./75% RH.

Read-outs that look alike come from different tables or passages of the source.

With `CC(CC(=O)[O-])C1CCC2C3C(O)CC4CC(O)CCC4(C)C3CCC12C.COc1ccc2cc3[n+](cc2c1OC)CCc1cc2c(cc1-3)OCO2` (stereo not drawn) [Crystalline form C, nor-ursodeoxycholic berberine salt], the “Solid form obtained after competition in suspension” value in data set [1] is recorded as “transition to form A”.
`CC(CC(=O)[O-])C1CCC2C3C(O)CC4CC(O)CCC4(C)C3CCC12C.COc1ccc2cc3[n+](cc2c1OC)CCc1cc2c(cc1-3)OCO2` (stereo not drawn) [Crystalline form D, nor-ursodeoxycholic berberine salt]: in data set [2], the “Change of crystal structure / crystalline form (physical stability)” value is “not obviously changed”. In data set [2] (Initial), the “Purity (area)” value was 98.61%. In data set [2] (One week, 25° C./60% RH), the Purity decrease is reported as 0.37%, the “Relative purity percentage (vs initial purity)” value (“Relative purity percentage” below) came out at 99.63% and the “Purity (area)” value is 98.24%. In addition, in data set [2] (setting [8]), the Crystallinity after storage result is “the crystallinity decreased” and the “Sample appearance after storage” value is listed as “turned dark brown”. In addition, in data set [2] (One week, 40° C./75% RH), the Purity decrease is listed as 0.62%, the “Relative purity percentage” value was found to be 99.37% and the “Purity (area)” value came to 97.99%. Moreover, in data set [3], the “Crystalline form after grinding” value is given as “transformed into amorphous”. Further, in data set [4], the Tablet mass is 96.9 mg, the Adhesion percentage amounted to 3.3%, the “Tensile strength T” value amounted to 1.69 MPa and the “Crystalline form after pressing” value is recorded as “remained unchanged”. Further, in data set [4], the “Tablet diameter D” value came out at 6.02 mm, the Tablet thickness t was 2.90 mm, the Adhesion amount stood at 3.3 mg and the “Hardness H” value was found to be 46.31 N.
Consider `CC(CC(=O)[O-])C1CCC2C3C(O)CC4CC(O)CCC4(C)C3CCC12C.COc1ccc2cc3[n+](cc2c1OC)CCc1cc2c(cc1-3)OCO2` (stereo not drawn) [Crystalline form G, nor-ursodeoxycholic berberine salt], for which the “Crystalline form after opening the cover” value in data set [5] was “turned back into form A”.
On to nor-ursodeoxycholic berberine salt, for which, in data set [6], the “Alanine aminotransferase (ALT)” value is listed as “significantly reduce”, the “Alkaline phosphatase (ALP)” value is “significantly reduce”, the “Glutamic oxaloacetic transaminase (AST)” value is on record as “significantly reduce” and the “Liver pathological damage (such as hepatic steatosis)” value is given as “significant improvement effect”. Besides, in data set [6], the “Therapeutic effect on fatty liver, liver fibrosis, and cirrhosis versus HTD1801” value is recorded as “significantly better than that of HTD1801”; the “Therapeutic effect on fatty liver, liver fibrosis, and cirrhosis versus individual norUDCA and berberine hydrochloride” value was “superior to the sum of the effects produced by individual norUDCA and berberine hydrochloride”.
Consider “nor-ursodeoxycholic berberine salt [Crystalline form A]”, for which, in data set [2], the “Change of crystal structure / crystalline form (physical stability)” value is recorded as “the crystal structure was not changed” and the “Purity change (chemical stability)” value is recorded as “not changed significantly”. For the same compound, the “Purity (area)” value in data set [2] (Initial) stood at 99.26%. In data set [2] (One week, 25° C./60% RH), the “Relative purity percentage” value worked out at 100.0% and the “Purity (area)” value was found to be 99.24%. Moreover, in data set [2] (One week, 40° C./75% RH), the “Relative purity percentage” value is recorded as 100.0% and the “Purity (area)” value is 99.23%. In data set [3], the “Crystalline form after grinding” value was “remained unchanged” and the Crystallinity after grinding entry is listed as “the crystallinity decreased”. For the same compound, in data set [4], the Tablet mass came out at 103.2 mg, the Adhesion percentage worked out at 1.6%, the “Tensile strength T” value was 2.38 MPa and the “Crystalline form after pressing” value is reported as “remained unchanged”. Besides, in data set [4], the “Tablet diameter D” value is given as 6.02 mm, the Tablet thickness t was 2.90 mm, the Adhesion amount is recorded as 1.7 mg and the “Hardness H” value stood at 65.37 N. This compound also came in with a Water adsorption rate in data set [7] (DVS, 25° C., 80% RH) of 8.7%. Besides, the Water absorption behaviour result in data set [7] (DVS, 25° C., after the relative humidity reached 10%) is “slowly absorbed water”. In data set [7] (DVS, 25° C., relative humidity range of 0% to 10%), the Water absorption behaviour entry is on record as “rapidly absorbed water”. In addition, in data set [7] (XRPD after DVS), the “Crystalline form before and after DVS testing” value is recorded as “did not change”.
